Experimental data published in patent US9849138B2, “1,4-benzodiazepone-2,5-diones and related compounds with therapeutic properties” (The Regents of the University of Michigan, priority 2009, dated 2017).

Legend:
[1] = target: ROCK-II (h, amino acids 11-552) (Homo sapiens (Human), UniProt O75116); test: ROCK-II (h) inhibition assay; format: biochemical; conditions: [γ-32P-ATP] filter assay, 40 minutes at room temperature, read-out: ROCK2 IC50
Method: ROCK-II (h) Inhibition Assay:
In a final reaction volume of 25 μL, ROCK-II (h, amino acids 11-552) (5-10 mU) was incubated with 50 mM Tris pH 7.5, 0.1 mM EGTA, 30 μM […], 10 mM magnesium acetate and [γ-^32P-ATP] (specific activity approx. 500 cpm/pmol, concentration as required). The reaction was initiated by the addition of the MgATP mix. After incubation for 40 minutes at room temperature, the reaction was stopped by the addition of 5 μL of a 3% phosphoric acid solution. 10 μL of the reaction was then spotted onto a P30 filter-mat and washed three times for 5 minutes in 75 mM phosphoric acid and once in methanol prior to drying and scintillation counting.

blood pressure = conditions: spontaneously hypertensive, renal hypertensive and deoxycortisone acetate salt hypertensive rats; cited from earlier work
neointimal formation = conditions: rats; cited from earlier work
[2] = test system: ventricular hypertrophy and function; conditions: Dahl salt-sensitive rats; cited from earlier work
ROCK = conditions: competition with intracellular micromolar ATP; cited from earlier work
coronary stenosis = conditions: porcine, long term treatment; cited from earlier work
[3] = test system: infarct size and neurologic deficit; conditions: rat stroke model; cited from earlier work

Chain of ROCK-II (h, amino acids 11-552) (O75116 11-552): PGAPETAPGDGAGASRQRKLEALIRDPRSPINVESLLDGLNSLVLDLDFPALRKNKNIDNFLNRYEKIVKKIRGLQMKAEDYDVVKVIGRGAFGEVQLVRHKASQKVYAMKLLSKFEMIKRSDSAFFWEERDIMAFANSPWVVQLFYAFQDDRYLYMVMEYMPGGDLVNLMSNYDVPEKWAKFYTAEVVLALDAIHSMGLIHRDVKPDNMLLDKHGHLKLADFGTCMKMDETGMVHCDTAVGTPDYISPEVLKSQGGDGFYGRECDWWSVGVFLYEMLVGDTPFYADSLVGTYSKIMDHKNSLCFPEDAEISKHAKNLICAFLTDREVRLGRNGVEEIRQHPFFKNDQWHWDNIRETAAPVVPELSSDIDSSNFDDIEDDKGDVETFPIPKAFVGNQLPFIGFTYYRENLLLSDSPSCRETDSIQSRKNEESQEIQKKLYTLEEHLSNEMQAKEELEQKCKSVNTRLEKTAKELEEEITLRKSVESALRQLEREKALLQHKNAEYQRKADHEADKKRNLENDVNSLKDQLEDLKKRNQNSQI

SMILES: C[C@@]1(Cc2ccc(-c3ccncc3)cc2)NC(=O)c2cc(Cl)ccc2NC1=O [Compound 2, (S)-7-chloro-3-methyl-3-(4-(pyridin-4-yl)benzyl)-3,4-dihydro-1H-benzo[e][1,4]diazepine-2,5-dione]
- IC50 [1]: > 10000 nM

SMILES: CN1C(=O)[C@@H](Cc2ccc(-c3ccncc3)cc2)NC(=O)c2cccc(Cl)c21 [Compound 5, (R)-9-chloro-1-methyl-3-(4-(pyridin-4-yl)benzyl)-3,4-dihydro-1H-benzo[e][1,4]diazepine-2,5-dione]
- IC50 [1]: 1000 nM

SMILES: C[C@@H](N)[C@H]1CC[C@H](C(=O)Nc2ccncc2)CC1 [Compound Y-27632, Y-27632]
- effect on blood pressure (blood pressure): significantly decrease blood pressure
- effect on neointimal formation (neointimal formation): inhibited neointimal formation
- effect on ventricular hypertrophy and function [2]: improve ventricular hypertrophy and function
- decrease in activity in cellular assays as compared to in vitro activities (ROCK): 100-1,000 fold

SMILES: O=S(=O)(c1cccc2cnccc12)N1CCCNCC1 [fasudil]
- effect on coronary stenosis (coronary stenosis): progressively reduce coronary stenosis
- effect on infarct size and neurologic deficit [3]: reduce both the infarct size and neurologic deficit
